Starred links: 1 amine or outer side, 2 acyl side, 3 side chain; linkers in the order of their positions; H or OH if unused. Non-standard residues stand in square brackets, D forms with d. Residues, ends and D or L forms follow the SMILES beside them. *: point of attachment. Benzenesulfonyl(4-OMe) = COc1ccc(S(=O)(=O)*)cc1; Benzoyl(4-COOH) = O=C(O)c1ccc(C(=O)*)cc1; Lys(Me3) = C[N+](C)(C)CCCC[C@H](N)C(=O)O; Ethylenediamine = C(CN[*:2])N[*:1]; Hydrocinnamoyl = O=C(CCc1ccccc1)*; Ala(cPr) = N[C@@H](CC1CC1)C(=O)O; 3Pal = N[C@@H](Cc1cccnc1)C(=O)O; Gly(cPr) = N[C@H](C(=O)O)C1CC1; Phg = N[C@H](C(=O)O)c1ccccc1; Nicotinoyl = O=C(c1cccnc1)*; Tos = Cc1ccc(S(=O)(=O)*)cc1; X2 = O=C(c1c[nH]c2ccccc12)*; X5 = c1ccc2[nH]c(N*)nc2c1; X9 = O[C@H]1CCCC[C@@H]1N*; Nle = CCCC[C@H](N)C(=O)O; Boc = CC(C)(C)OC(=O)*; Bz = O=C(c1ccccc1)*; NHCH2CH2OH = OCCN*; X8 = OCC1(N*)CCCC1; X1 = CCCC(CO)N*
Molecular target: T1, Chromobox protein homolog 7 (Homo sapiens, UniProt O95931)
T1 sequence (O95931 whole entry): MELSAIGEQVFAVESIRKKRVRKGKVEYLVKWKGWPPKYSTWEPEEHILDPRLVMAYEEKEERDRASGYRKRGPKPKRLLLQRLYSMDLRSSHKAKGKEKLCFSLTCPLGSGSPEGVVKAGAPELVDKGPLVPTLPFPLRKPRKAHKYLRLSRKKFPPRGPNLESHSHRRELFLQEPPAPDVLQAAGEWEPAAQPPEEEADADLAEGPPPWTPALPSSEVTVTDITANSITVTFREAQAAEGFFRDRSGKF
Experiment: Displacement of FITC-labeled H3K27me3 from CBX7 (unknown origin) after 15 mins by fluorescence polarization assay

Compound | IC50
Cc1ccc(S(=O)(=O)NCC(=O)N[C@@H](C)C(=O)N[C@@H](CC(C)C)C(=O)N[C@@H](CCCC[N+](C)(C)C)C(=O)N[C@@H](CO)C(N)=O)cc1 (Tos-GAL[Lys(Me3)]S-NH2) | 34 µM
CC(C)C[C@H](NC(=O)[C@H](C)NC(=O)c1c[nH]c2ccccc12)C(=O)N[C@@H](CCCC[N+](C)(C)C)C(=O)N[C@@H](CO)C(N)=O (X2-AL[Lys(Me3)]S-NH2) | 67 µM
CC(C)C[C@H](NC(=O)[C@H](C)NC(=O)[C@H](Cc1ccccc1)NC(=O)c1ccc(C(=O)O)cc1)C(=O)N[C@@H](CCCC[N+](C)(C)C)C(=O)N[C@@H](CO)C(N)=O ({Benzoyl(4-COOH)}-FAL[Lys(Me3)]S-NH2) | 6.2 µM
CC(C)C[C@H](NC(=O)[C@H](C)NC(=O)CNC(=O)c1ccccc1)C(=O)N[C@@H](CCCC[N+](C)(C)C)C(=O)N[C@@H](CO)C(N)=O (Bz-GAL[Lys(Me3)]S-NH2) | 58 µM
CC(=O)N[C@@H](Cc1ccccc1)C(=O)N[C@@H](C)C(=O)N[C@@H](CC(C)C)C(=O)N[C@@H](CCCC[N+](C)(C)C)C(=O)N[C@H]1CCCC[C@@H]1O (Ac-FAL[Lys(Me3)]-X9) | > 250 µM
CCCC[C@H](NC(=O)[C@H](C)NC(=O)[C@H](Cc1ccccc1)NC(C)=O)C(=O)N[C@@H](CCCC[N+](C)(C)C)C(=O)N[C@@H](CO)C(N)=O (Ac-FA[Nle][Lys(Me3)]S-NH2) | 23 µM
CC(=O)N[C@@H](Cc1ccc(O)cc1)C(=O)N[C@@H](C)C(=O)N[C@@H](CC(C)C)C(=O)N[C@@H](CCCC[N+](C)(C)C)C(=O)N[C@@H](CO)C(N)=O (Ac-YAL[Lys(Me3)]S-NH2) | 8.6 µM
CC(=O)N[C@@H](Cc1ccccc1)C(=O)N[C@@H](C)C(=O)N[C@@H](CC(C)C)C(=O)N[C@@H](CCCC[N+](C)(C)C)C(=O)N[C@H](CO)C(=O)O | 79 µM
CC(=O)N[C@@H](Cc1ccccc1)C(=O)N[C@@H](C)C(=O)N[C@@H](CC(C)C)C(=O)N[C@@H](CCCC[N+](C)(C)C)C(=O)Nc1nc2ccccc2[nH]1 (Ac-FAL[Lys(Me3)]-X5) | 35 µM
CC(C)C[C@H](NC(=O)[C@H](C)NC(=O)CCc1ccccc1)C(=O)N[C@@H](CCCC[N+](C)(C)C)C(=O)N[C@@H](CO)C(N)=O (Hydrocinnamoyl-AL[Lys(Me3)]S-NH2) | 26 µM
CC(=O)N[C@H](C(=O)N[C@@H](C)C(=O)N[C@@H](CC(C)C)C(=O)N[C@@H](CCCC[N+](C)(C)C)C(=O)N[C@@H](CO)C(N)=O)c1ccccc1 (Ac-[Phg]AL[Lys(Me3)]S-NH2) | 26 µM
CC(=O)N[C@@H](Cc1ccccc1)C(=O)N[C@@H](C)C(=O)N[C@H](C(=O)N[C@@H](CCCC[N+](C)(C)C)C(=O)N[C@@H](CO)C(N)=O)C1CC1 (Ac-FA[Gly(cPr)][Lys(Me3)]S-NH2) | 21 µM
CC(=O)N[C@@H](Cc1ccccc1)C(=O)N[C@@H](C)C(=O)N[C@@H](Cc1cccnc1)C(=O)N[C@@H](CCCC[N+](C)(C)C)C(=O)N[C@@H](CO)C(N)=O (Ac-FA[3Pal][Lys(Me3)]S-NH2) | 11 µM
CC(=O)N[C@@H](Cc1ccccc1)C(=O)N[C@@H](C)C(=O)N[C@@H](CC(C)C)C(=O)N[C@@H](CCCC[N+](C)(C)C)C(=O)NCCNC(=O)OC(C)(C)C (Ac-FAL[Lys(Me3)]-{Ethylenediamine-Boc}) | 105 µM
CC(=O)N[C@@H](Cc1ccccc1)C(=O)N[C@@H](C)C(=O)N[C@H](C(=O)N[C@@H](CCCC[N+](C)(C)C)C(=O)N[C@@H](CO)C(N)=O)C(C)C (Ac-FAV[Lys(Me3)]S-NH2) | 6.8 µM
CC(C)C[C@H](NC(=O)[C@H](C)NC(=O)c1cccnc1)C(=O)N[C@@H](CCCC[N+](C)(C)C)C(=O)N[C@@H](CO)C(N)=O (Nicotinoyl-AL[Lys(Me3)]S-NH2) | 91 µM
CC(=O)N[C@@H](Cc1ccccc1)C(=O)N[C@@H](C)C(=O)N[C@@H](CC(C)C)C(=O)N[C@@H](CCCC[N+](C)(C)C)C(=O)NC1(CO)CCCC1 (Ac-FAL[Lys(Me3)]-X8) | > 250 µM
COc1ccc(S(=O)(=O)N[C@@H](C)C(=O)N[C@@H](CC(C)C)C(=O)N[C@@H](CCCC[N+](C)(C)C)C(=O)N[C@@H](CO)C(N)=O)cc1 ({Benzenesulfonyl(4-OMe)}-AL[Lys(Me3)]S-NH2) | > 250 µM
CC(=O)N[C@@H](Cc1ccccc1)C(=O)N[C@@H](C)C(=O)N[C@@H](CC(C)C)C(=O)N[C@@H](CCCC[N+](C)(C)C)C(=O)NCCO (Ac-FAL[Lys(Me3)]-NHCH2CH2OH) | 26 µM
CC(=O)N[C@@H](Cc1ccccc1)C(=O)N[C@@H](C)C(=O)N[C@@H](CC1CC1)C(=O)N[C@@H](CCCC[N+](C)(C)C)C(=O)N[C@@H](CO)C(N)=O (Ac-FA[Ala(cPr)][Lys(Me3)]S-NH2) | 11.2 µM
CCCC(CO)NC(=O)[C@H](CCCC[N+](C)(C)C)NC(=O)[C@H](CC(C)C)NC(=O)[C@H](C)NC(=O)[C@H](Cc1ccccc1)NC(C)=O (some centres not stated) (Ac-FAL[Lys(Me3)]-X1) | > 500 µM
CC(C)C[C@H](NC(=O)[C@H](C)NC(=O)c1ccccc1)C(=O)N[C@@H](CCCC[N+](C)(C)C)C(=O)N[C@@H](CO)C(N)=O (Bz-AL[Lys(Me3)]S-NH2) | 57 µM

Source: ChEMBL document CHEMBL3233003, “Chromodomain antagonists that target the polycomb-group methyllysine reader protein chromobox homolog 7 (CBX7)” (J Med Chem, 2014)
